# Measured values published in patent US9605008B2, “Benzyl-1H-pyrazolo[3,4-b]pyridines and use thereof” (BAYER PHARMA AKTIENGESELLSCHAFT, priority 2013, dated 2017).
# What was measured:
# [1] = target: human phosphodiesterase 5 (PDE 5) (Homo sapiens (Human), UniProt O76074); test: Inhibition of human phosphodiesterase 5 (PDE 5); type: biochemical; conditions: PDE 5 preparation from human platelets; [8-3H] cGMP substrate, SPA; in some cases means of individual determinations
# Protocol: B-3. Inhibition of Human Phosphodiesterase 5 (PDE 5)
# PDE 5 preparations are obtained from human platelets by disruption (Microfluidizer®, 800 bar, 3 passes), followed by centrifugation (75000 g, 60 min, 4° C.) and ion exchange chromatography of the supernatant on a Mono Q 10/10 column (linear sodium chloride gradient, elution with a 0.2-0.3M solution of sodium chloride in buffer (20 mM Hepes pH 7.2, 2 mM magnesium chloride). Fractions having PDE 5 activity are combined (PDE 5 preparation) and stored at −80° C.
# To determine their in vitro action on human PDE 5, the test substances are dissolved in 100% DMSO and serially diluted. Typically, dilution series (1:3) from 200 μM to 0.091 μM are prepared (resulting final concentrations in the test: 4 μM to 0.0018 μM). In each case 2 μl of the diluted substance solutions are placed into the wells of microtitre plates (Isoplate-96/200W; Perkin Elmer). Subsequently, 50 μl of a dilution of the above-described PDE 5 preparation are added. The dilution of the PDE 5 preparation is chosen such that during the later incubation less than 70% of the substrate are converted (typical dilution: 1:100; dilution buffer: 50 mM tris/hydrochloric acid pH 7.5, 8.3 mM magnesium chloride, 1.7 mM EDTA, 0.2% BSA). The substrate, [8-^3H] cyclic guanosine-3′,5′-monophosphate (1 μCi/μl; Perkin Elmer) is diluted 1:2000 with assay buffer (50 mM tris/hydrochloric acid pH 7.5, 8.3 mM magnesium chloride, 1.7 mM EDTA) to a concentration of 0.0005 μCi/μl. By addition of 50 μl (0.025 μCi) of the diluted substrate, the enzyme reaction is finally started. The test mixtures are incubated at room temperature for 60 min and the reaction is stopped by adding 25 μl of a suspension of 18 mg/ml yttrium scintillation proximity beads in water (phosphodiesterase beads for SPA assays, RPNQ 0150, Perkin Elmer). The microtitre plates are sealed with a film and left to stand at room temperature for 60 min. Subsequently, the plates are analysed for 30 s per well in a Microbeta scintillation counter (Perkin Elmer). IC50 values are determined using the graphic plot of the substance concentration against percentage PDE 5 inhibition.
# [2] = target: recombinant guanylate cyclase reporter cell line (Rattus norvegicus (Rat), UniProt P19686+P20595); test: Effect on a recombinant guanylate cyclase reporter cell line; type: cell-based; conditions: in some cases means of individual determinations
# Protocol: B-2. Effect on a Recombinant Guanylate Cyclase Reporter Cell Line
# The cellular activity of the compounds according to the invention is determined using a recombinant guanylate cyclase reporter cell line, as described in F. Wunder et al., Anal. Biochem. 339, 104-112 (2005).
# Representative values (MEC=minimum effective concentration) for the compounds according to the invention are shown in the table below (Table 1; in some cases as means of individual determinations): […]
# Sequence of recombinant guanylate cyclase reporter cell line (P19686 whole entry): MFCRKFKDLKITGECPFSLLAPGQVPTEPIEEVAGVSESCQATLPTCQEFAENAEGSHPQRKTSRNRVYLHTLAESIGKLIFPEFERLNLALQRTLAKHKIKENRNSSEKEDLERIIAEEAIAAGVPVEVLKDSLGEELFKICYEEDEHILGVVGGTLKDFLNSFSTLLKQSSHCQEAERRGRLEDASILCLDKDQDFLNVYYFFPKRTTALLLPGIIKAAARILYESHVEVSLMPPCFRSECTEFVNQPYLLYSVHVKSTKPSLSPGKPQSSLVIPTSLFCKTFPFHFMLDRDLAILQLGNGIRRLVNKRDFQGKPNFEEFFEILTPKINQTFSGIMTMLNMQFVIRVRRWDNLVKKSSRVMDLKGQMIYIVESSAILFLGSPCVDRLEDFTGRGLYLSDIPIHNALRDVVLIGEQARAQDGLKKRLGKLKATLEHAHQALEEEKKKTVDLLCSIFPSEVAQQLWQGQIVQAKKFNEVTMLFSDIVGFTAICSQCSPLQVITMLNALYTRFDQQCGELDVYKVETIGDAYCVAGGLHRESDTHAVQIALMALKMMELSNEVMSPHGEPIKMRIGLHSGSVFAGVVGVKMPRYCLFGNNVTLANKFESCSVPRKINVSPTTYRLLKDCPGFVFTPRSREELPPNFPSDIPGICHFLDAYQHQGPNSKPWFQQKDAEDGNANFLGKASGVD
# Sequence of recombinant guanylate cyclase reporter cell line (P20595 whole entry): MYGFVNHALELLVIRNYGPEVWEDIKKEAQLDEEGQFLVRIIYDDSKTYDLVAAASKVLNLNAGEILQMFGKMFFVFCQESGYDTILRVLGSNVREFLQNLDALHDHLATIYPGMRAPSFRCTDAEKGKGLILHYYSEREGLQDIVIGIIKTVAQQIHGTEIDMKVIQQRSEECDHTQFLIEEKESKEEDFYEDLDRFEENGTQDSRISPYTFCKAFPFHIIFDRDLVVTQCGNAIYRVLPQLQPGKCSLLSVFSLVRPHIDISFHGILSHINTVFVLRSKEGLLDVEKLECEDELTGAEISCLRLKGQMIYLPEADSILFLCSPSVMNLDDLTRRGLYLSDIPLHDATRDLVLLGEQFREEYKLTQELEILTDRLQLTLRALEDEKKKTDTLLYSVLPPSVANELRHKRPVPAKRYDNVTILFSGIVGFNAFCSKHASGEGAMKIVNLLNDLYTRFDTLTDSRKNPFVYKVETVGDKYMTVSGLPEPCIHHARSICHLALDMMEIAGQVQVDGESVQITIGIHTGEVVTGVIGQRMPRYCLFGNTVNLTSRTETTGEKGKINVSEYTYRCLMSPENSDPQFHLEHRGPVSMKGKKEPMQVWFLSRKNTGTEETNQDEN
IC50 [1] [nM],MEC (minimum effective concentration) [2] [nM],SMILES
5,30,"Cc1nc2c(cc1F)c(-c1nnc3c(n1)NC(=O)C3(C)C)nn2Cc1cccc(F)c1F [Example 1, 3-[1-(2,3-Difluorobenzyl)-5-fluoro-6-methyl-1H-pyrazolo[3,4-b]pyridin-3-yl]-7,7-dimethyl-5,7-dihydro-6H-pyrrolo[2,3-e][1,2,4]triazin-6-one]"
5,30,"Cc1nc2c(cc1F)c(-c1nnc3c(n1)[N-]C(=O)C3(C)C)nn2Cc1cccc(F)c1F.[Na+] [Example 2, Sodium 3-[1-(2,3-difluorobenzyl)-5-fluoro-6-methyl-1H-pyrazolo[3,4-b]pyridin-3-yl]-7,7-dimethyl-6-oxo-6,7-dihydropyrrolo[2,3-e][1,2,4]triazin-5-ide]"
1.5,100,"Cc1ccc(Cn2nc(-c3nnc4c(n3)NC(=O)C4(C)C)c3cc(F)c(C)nc32)c(F)c1 [Example 5, 3-[5-Fluoro-1-(2-fluoro-4-methylbenzyl)-6-methyl-1H-pyrazolo[3,4-b]pyridin-3-yl]-7,7-dimethyl-5,7-dihydro-6H-pyrrolo[2,3-e][1,2,4]triazin-6-one]"
2,200,"Cc1ccc(Cn2nc(-c3nnc4c(n3)NC(=O)C4(C)C)c3ccc(C)nc32)c(F)c1 [Example 6, 3-[1-(2-Fluoro-4-methylbenzyl)-6-methyl-1H-pyrazolo[3,4-b]pyridin-3-yl]-7,7-dimethyl-5,7-dihydro-6H-pyrrolo[2,3-e][1,2,4]triazin-6-one]"
21,100,"Cc1nc2c(cc1F)c(-c1nnc3c(n1)NC(=O)C3(C)C)nn2Cc1ccc(F)cc1F [Example 7, 3-[1-(2,4-Difluorobenzyl)-5-fluoro-6-methyl-1H-pyrazolo[3,4-b]pyridin-3-yl]-7,7-dimethyl-5,7-dihydro-6H-pyrrolo[2,3-e][1,2,4]triazin-6-one]"
34,300,"Cc1ccc2c(-c3nnc4c(n3)NC(=O)C4(C)C)nn(Cc3ccc(F)cc3F)c2n1 [Example 8, 3-[1-(2,4-Difluorobenzyl)-6-methyl-1H-pyrazolo[3,4-b]pyridin-3-yl]-7,7-dimethyl-5,7-dihydro-6H-pyrrolo[2,3-e][1,2,4]triazin-6-one]"
6,300,"Cc1nc2c(cc1F)c(-c1nnc3c(n1)NC(=O)C3(C)C)nn2Cc1ccc(Cl)cc1F [Example 9, 3-[1-(4-Chloro-2-fluorobenzyl)-5-fluoro-6-methyl-1H-pyrazolo[3,4-b]pyridin-3-yl]-7,7-dimethyl-5,7-dihydro-6H-pyrrolo[2,3-e][1,2,4]triazin-6-one]"
4.5,300,"Cc1ccc2c(-c3nnc4c(n3)NC(=O)C4(C)C)nn(Cc3ccc(Cl)cc3F)c2n1 [Example 10, 3-[1-(4-Chloro-2-fluorobenzyl)-6-methyl-1H-pyrazolo[3,4-b]pyridin-3-yl]-7,7-dimethyl-5,7-dihydro-6H-pyrrolo[2,3-e][1,2,4]triazin-6-one]"
27,30,"Cc1nc2c(cc1F)c(-c1nnc3c(n1)NC(=O)C3(C)C)nn2Cc1c(F)ccc(F)c1F [Example 11, 3-[5-Fluoro-6-methyl-1-(2,3,6-trifluorobenzyl)-1H-pyrazolo[3,4-b]pyridin-3-yl]-7,7-dimethyl-5,7-dihydro-6H-pyrrolo[2,3-e][1,2,4]triazin-6-one]"
21,300,"Cc1ccc2c(-c3nnc4c(n3)NC(=O)C4(C)C)nn(Cc3c(F)ccc(F)c3F)c2n1 [Example 12, 7,7-Dimethyl-3-[6-methyl-1-(2,3,6-trifluorobenzyl)-1H-pyrazolo[3,4-b]pyridin-3-yl]-5,7-dihydro-6H-pyrrolo[2,3-e][1,2,4]triazin-6-one]"
42,100,"Cc1nc2c(cc1F)c(-c1nnc3c(n1)NC(=O)C3(C)C)nn2Cc1cccc(Cl)c1F [Example 13, 3-[1-(3-Chloro-2-fluorobenzyl)-5-fluoro-6-methyl-1H-pyrazolo[3,4-b]pyridin-3-yl]-7,7-dimethyl-5,7-dihydro-6H-pyrrolo[2,3-e][1,2,4]triazin-6-one]"
63,300,"Cc1ccc2c(-c3nnc4c(n3)NC(=O)C4(C)C)nn(Cc3cccc(Cl)c3F)c2n1 [Example 14, 3-[1-(3-Chloro-2-fluorobenzyl)-6-methyl-1H-pyrazolo[3,4-b]pyridin-3-yl]-7,7-dimethyl-5,7-dihydro-6H-pyrrolo[2,3-e][1,2,4]triazin-6-one]"
67,65,"Cc1nc2c(cc1F)c(-c1nnc3c(n1)NC(=O)C3(C)C)nn2Cc1c(F)cccc1F [Example 15, 3-[1-(2,6-Difluorobenzyl)-5-fluoro-6-methyl-1H-pyrazolo[3,4-b]pyridin-3-yl]-7,7-dimethyl-5,7-dihydro-6H-pyrrolo[2,3-e][1,2,4]triazin-6-one]"
24,300,"Cc1ccc2c(-c3nnc4c(n3)NC(=O)C4(C)C)nn(Cc3c(F)cccc3F)c2n1 [Example 16, 3-[1-(2,6-Difluorobenzyl)-6-methyl-1H-pyrazolo[3,4-b]pyridin-3-yl]-7,7-dimethyl-5,7-dihydro-6H-pyrrolo[2,3-e][1,2,4]triazin-6-one]"
8,300,"Cc1ccc(Cn2nc(-c3nnc4c(n3)NC(=O)C4(C)C)c3cc(F)c(C)nc32)cc1F [Example 17, 3-[5-Fluoro-1-(3-fluoro-4-methylbenzyl)-6-methyl-1H-pyrazolo[3,4-b]pyridin-3-yl]-7,7-dimethyl-5,7-dihydro-6H-pyrrolo[2,3-e][1,2,4]triazin-6-one]"
10,1000,"Cc1ccc2c(-c3nnc4c(n3)NC(=O)C4(C)C)nn(Cc3ccc(C)c(F)c3)c2n1 [Example 18, 3-[1-(3-Fluoro-4-methylbenzyl)-6-methyl-1H-pyrazolo[3,4-b]pyridin-3-yl]-7,7-dimethyl-5,7-dihydro-6H-pyrrolo[2,3-e][1,2,4]triazin-6-one]"
0.25,300,"Cc1ccc(Cn2nc(-c3nnc4c(n3)NC(=O)C4(C)C)c3cc(F)c(C)nc32)c(F)c1F [Example 19, 3-[1-(2,3-Difluoro-4-methylbenzyl)-5-fluoro-6-methyl-1H-pyrazolo[3,4-b]pyridin-3-yl]-7,7-dimethyl-5,7-dihydro-6H-pyrrolo[2,3-e][1,2,4]triazin-6-one]"
0.65,300,"Cc1ccc2c(-c3nnc4c(n3)NC(=O)C4(C)C)nn(Cc3ccc(C)c(F)c3F)c2n1 [Example 20, 3-[1-(2,3-Difluoro-4-methylbenzyl)-6-methyl-1H-pyrazolo[3,4-b]pyridin-3-yl]-7,7-dimethyl-5,7-dihydro-6H-pyrrolo[2,3-e][1,2,4]triazin-6-one]"
16,,"Cc1ccc(Cn2nc(-c3nnc4c(n3)NC(=O)C43CC3)c3ccc(C)nc32)c(F)c1 [Example 22, 3′-[1-(2-Fluoro-4-methylbenzyl)-6-methyl-1H-pyrazolo[3,4-b]pyridin-3-yl]spiro[cyclopropane-1,7′-pyrrolo[2,3-e][1,2,4]triazin]-6′(5′H)-one]"
21,300,"Cc1ccc2c(-c3nnc4c(n3)NC(=O)C43CC3)nn(Cc3cccc(F)c3F)c2n1 [Example 24, 3′-[1-(2,3-Difluorobenzyl)-6-methyl-1H-pyrazolo[3,4-b]pyridin-3-yl]spiro[cyclopropane-1,7′-pyrrolo[2,3-e][1,2,4]triazin]-6′(5′H)-one]"
4,300,"Cc1ccc2c(-c3nnc4c(n3)NC(=O)C43CC3)nn(Cc3ccc(C)c(F)c3F)c2n1 [Example 26, 3′-[1-(2,3-Difluoro-4-methylbenzyl)-6-methyl-1H-pyrazolo[3,4-b]pyridin-3-yl]spiro[cyclopropane-1,7′-pyrrolo[2,3-e][1,2,4]triazin]-6′(5′H)-one]"
